Patent US20200237700A1, “METHODS OF REDUCING OR PREVENTING OXIDATION OF SMALL DENSE LDL OR MEMBRANE POLYUNSATURATED FATTY ACIDS” (Amarin Pharmaceuticals Ireland Limited, priority 2015, published 2020)

What was measured:
[1] = LOOH formation in glucose-treated model membranes, EPA versus EA and ETE (Example 5); format: biochemical; conditions: 72 and 96 hr
Protocol: An experiment was conducted to compare the ability of EPA to prevent lipid hydroperoxide formation in model membranes treated with glucose to two other 20-carbon fatty acids: eicosanoic acid (“EA,” also referred to as arachidic acid, C20:0) and eicosatrienoic acid (“ETE,” C20:3, n−3). All MLV samples were subjected to time-dependent autoxidation by incubating at 37° C. in an uncovered, shaking water bath. This method allows lipid peroxidation to occur gradually without requiring the use of exogenous initiators. Small aliquots (5-100 μL) of each sample were removed, immediately following MLV preparation (0 hr) and after exposing samples to oxidative conditions for 72 or 96 hr, and combined with 1.0 mL of activated CHOD-iodide color reagent. Aliquot volume was reduced with each successive time point to ensure that spectrophotometric readings were within the optimal adsorption range. Test samples were covered and incubated in darkness at room temperature for at least 4 hr. Sample absorbances were then measured against a CHOD blank at 365 nm using a Beckman DU-640 spectrophotometer. The CHOD colorimetric assay is based on the oxidation of iodide (I^−) by lipid hydroperoxide (LOOH) to form triiodide (I3^−), the quantity of which is directly proportional to the amount of LOOH present in the lipid sample. The molar absorptivity (E) of I3^− is 2.46×10^4 M^−1 cm^−1 at 365 nm.

[2] = system: unfractionated LDL isolated from human plasma; test: Copper-induced oxidation of unfractionated LDL, TBARS (Example 6); format: biochemical; conditions: 10.0 μM; unfractionated LDL
Protocol: All test compounds were further diluted in ethanol or aqueous buffer as needed. Venous blood was collected from healthy volunteers into vacutainer tubes containing sodium EDTA. […] Plasma and lipoprotein fractions were maintained at 4° C. and protected from excessive exposure to light. Prior to oxidation experiments, EDTA was removed from the lipoprotein fraction using PD-10 desalting columns (GE Healthcare, Piscataway N.J.). After equilibration of the column with phosphate buffered saline (PBS), 2.5 mL of the lipoprotein fraction was loaded on the column and the flow-through discarded. The lipoprotein was then eluted with 3 mL of PBS. The LDL fractions were further diluted with PBS to obtain a 100 μg/mL apoB100 concentration. […] Differences between groups were analyzed using the two-tailed, Student's t-test (for comparisons between only two groups) or ANOVA followed by Dunnett or Student-Newman-Keuls multiple comparisons post-hoc analysis (for comparisons between three or more groups).

[3] = system: sdLDL isolated from human plasma; test: Copper-induced sdLDL oxidation 1 hour (Example 12); format: biochemical; conditions: 10.0 μM; copper-induced oxidation 1 hour
Protocol: All samples, with the exception of non-oxidized sdLDL controls, were subjected to copper-induced oxidation for 1 hour. Human umbilical vein endothelial cells (HUVECs) were incubated with the various sdLDL samples, stimulated with calcium, and monitored for nitric oxide (NO) and peroxynitrite (ONOO^−) release using nanosensor technology.

[4] = system: sdLDL from plasma of healthy volunteers; test: Time-dependent sdLDL oxidation, MDA formation over 4 hours (Example 13); format: biochemical, human; conditions: each at 10 μM; 4 hours; 10 μM CuSO4
Protocol: sdLDL was isolated from the plasma of healthy volunteers by iodixanol density gradient centrifugation and adjusted to a final apolipoprotein concentration of 2 mg/mL. Sample aliquots (100 μg apolipoprotein) were incubated with EPA, DHA, or EPA+DHA (each at 10 μM) for 30 minutes at 37° C. and then treated with 10 μM CuSO4 to initiate lipid oxidation. sdLDL oxidation was measured spectrophotometrically as a function of malondialdehyde (MDA) formation at various intervals over 4 hours. Vitamin E was also tested as a positive control. Experiments were conducted in triplicate and reported as mean±SD.

[5] = system: HUVECs challenged with oxLDL; test: NO and ONOO− release from HUVECs pretreated with agents, then oxLDL (Example 11, Objective 1); format: cell-based, human; conditions: pretreated 30 min at 10 μM, then oxLDL 11 mg/dL up to 3 hr, calcium ionophore 1.0 μM
Protocol: The omega-3 fatty acid, cis-5,8,11,14,17-eicosapentaenoic acid (EPA) and docosahexaenoic acid (DHA) were purchased from Sigma-Aldrich (Saint Louis, Mo.) and solubilized in redistilled ethanol to 11 mM under nitrogen atmosphere. EPA and DHA stock solutions were stored at −20° C. until use.
Human umbilical vein endothelial cells (HUVECs) were obtained from healthy, female donors and isolated into primary, proliferating cell cultures (Clonetics, San Diego, Calif.). […] The confluent cells (4 to 5×10^5 cells/35 mm dish) were plated with minimum essential medium containing 3 mM L-arginine and 0.1 mM BH4 [(6R)-5,6,7,8-tetrahydrobiopterin]. Before experimental use, the cells (from second or third passage) were rinsed twice with Tyrode-HEPES buffer with 1.8 mM CaCl2. […]
LDL underwent oxidation following the addition of 10 μM CuSO4. […] Sample TBARS concentrations were determined spectrophotometrically by measuring sample absorbances against a standard curve derived from the hydrolysis of 1,1,3,3-tetramethoxypropane. […]
The amperometric method (with a response time of 0.1 ms) provides a quantitative signal (current) that is directly proportional to changes (from basal levels) in NO or ONOO^− concentration. […] Basal NO or ONOO^− levels were measured by differential pulse voltammetry in separate experiments. […]
NO and ONOO^− release were measured following stimulation with calcium.

For `CC/C=C\C/C=C\C/C=C\C/C=C\C/C=C\CCCC(=O)O` [EPA, cis-5,8,11,14,17-eicosapentaenoic acid], the “LOOH formation compared to vehicle only, glucose only, glucose and EA, glucose and ETE” value [1] was “significantly less LOOH formation”, the “reduced TBARS levels” value [2] was 17% and the “reduced sdLDL oxidation compared to vehicle treatment alone” value [3] was over 90%. For the same molecule, the MDA levels [4] was 0.8 ± 0.03 µM and the “reduction in sdLDL oxidation (MDA levels)” value [4] was 92%.

In the case of `O=C(O)c1cccnc1` [niacin, nicotinic acid], the “NO/ONOO− Ratio” value [5] is reported as 1.45±0.14 and the “NO/ONOO− Ratio” value ([5]; listed as Niacin) is reported as 1.45 ± 0.14.
